Experimental data published in a melting point compilation (Tetko et al.; mined from patent text by program, amines drawn as free bases though some values may be those of a salt).

SMILES | melting point [°C]
COC(=O)[C@@H](NS(=O)(=O)c1ccc(Br)cc1)C(C)C | 88 to 90
C=Cc1ccc(OC)c(OC)c1 | 110 to 114
Cc1noc(NS(=O)(=O)c2ccccc2-c2ccc(-n3cccn3)cc2)c1C | 88 to 98
CC(C)(C)OC(=O)N1CCC(C(=O)c2nc3ccccc3n2Cc2ccccc2)CC1 | 122
CC(C)(C)OC(=O)NCCCCC(=O)NCCC(=O)OCc1ccccc1 | 69 to 70
CCN1CCCC1CNc1ccc(-c2ccnc(Nc3cc(OC)c(OC)c(OC)c3)n2)cn1 (configuration not stated) | 81 to 82
CC#CCOc1ccc(S(=O)(=O)C2(C(=O)NO)CCCN(Cc3ccc(Cl)cc3)C2)cc1 (configuration not stated) | 124
Cc1ccc(S(=O)(=O)OCC2CCc3sc(C(C)C)nc3C2)cc1 (configuration not stated) | 82 to 83
Cc1cc2c(C)cc(=O)oc2cc1O | 273
Cc1nc2ccccn2c(=O)c1CC1CCCCC1 | 112 to 114
CC(=O)NCC1CN(c2ccc(N3CCN(c4nncs4)CC3)c(F)c2)C(=O)O1 (configuration not stated) | 206 to 208
CCOC(=O)CN1C(=O)C2(COc3cc(F)c(F)cc32)c2c(Br)cccc21 (configuration not stated) | 133 to 134
NS(=O)(=O)c1cc2c(s1)CNCC2 | 172 to 175
COc1ccc(-n2nc3c(-c4ccccc4)c(C)[nH]cc-3c2=O)cc1 | 300 to 310
CCOC(=O)c1[nH]c(CC2CCC2)nc1C(F)(F)F | 136 to 138
CCCc1c(OCCCCOc2cccc(Sc3ccc(C(=O)O)cc3)c2)ccc(C(C)=O)c1O | 100 to 102
COc1ccc2cc([C@H](C)C(=O)NOCC(=O)OC(C)(C)C)ccc2c1 | 82 to 84
NC(c1ccc(Cl)cc1Cl)P(O)O (configuration not stated) | 244
N=c1ccccn1COc1ccccc1Br | 62 to 64
Cn1c(=O)n(-c2cc([N+](=O)[O-])c(Cl)cc2F)c(=S)n1C | 146
COc1cc2ccccc2c(OC)c1C(=O)O | 119 to 123
CCCc1ccc(S(=O)(=O)Nc2ccc3nc(C)c(C)nc3c2)cc1 | 198 to 199
Cc1c(C)c2ccc(OCC(O)CN3CCC(NC(=O)c4ccccc4)CC3)cc2oc1=O (configuration not stated) | 178 to 180
O=C1OCCN1CCn1ccnc1[N+](=O)[O-] | 103 to 104
CCOC(=O)c1cnc2cc3c(cc2c1Cl)OCO3 | 109 to 110
c1csc(-c2nc(COc3ccc(CCCn4ccnc4)cc3)co2)c1 | 84 to 85

SMILES | melting point [°C]
CC(C)(C)c1cc(I)c2c(c1)CNS(=O)(=O)O2 | 154 to 155
COc1ccc(C(N)=O)c(N)c1 | 152 to 156
COc1ccc(/C=C/C(=O)Nc2ccccc2C(=O)OCC(=O)O)cc1OC | 206 to 209
CCC1(CC)C(=O)c2cc(OC)c(C)c(C)c2C1=O | 80 to 81
O=[N+]([O-])c1cc(Cl)cc(Cc2cc(Cl)cc([N+](=O)[O-])c2O)c1O | 163 to 170
CC1(C)C(=O)N(c2ccc(C#N)c(C(F)(F)F)c2)C(=S)N1CCO | 130
CCOc1ncc(C(C)=O)cc1C(=O)Nc1c(C(N)=O)nn(CC2CC2)c1CC | 238 to 240
CCCCN1CCC(C(=O)O)(S(=O)(=O)c2ccc(OCCC(C)C)cc2)CC1 | 188
CCn1cc(C(=O)NCc2ccc(Cl)cc2)c(=O)c2cc(C#CCOC(=O)CCC(=O)O)sc21 | 180 to 182
CCOc1nc(C(F)(F)F)cc(=O)n1-c1cc(C(=O)OC)c(Cl)cc1F | 96 to 98
O=S(=O)(c1cc(-c2ccc(F)cc2)c(-c2ccc(F)cc2)s1)C(F)(F)F | 104 to 106
OCc1cc(F)c(Cl)nc1Cl | 65 to 67
CC(C)(C)c1ccc(O)c(C=O)c1 | 81
CC(C)=CCCn1c(=O)sc2c(=O)[nH]c(N)nc21 | 240 to 242
CCc1noc(-c2cc3c(cn2)[nH]c2cccc(Oc4ncccn4)c23)n1 | 254 to 256
Cc1oc(-c2ccccc2)nc1CCC(=O)c1ccc(CCCC2OC(=O)NC2=O)cc1 (configuration not stated) | 184 to 185
O=C(O)CCCCN1CCC(C(O)(c2ccc(F)cc2)c2ccc(F)cc2)CC1 | 105 to 107
CCCCP(=O)(C(=O)c1c(C)cc(C)cc1C)C(=O)c1c(OC)cccc1OC (configuration not stated) | 94 to 96
COC(=O)Cn1c(-c2ccc(Cl)cc2)nc2cccnc21 | 198 to 200
O=C(O)CC(=O)Nc1ccc(Br)cc1C(=O)O | 203 to 206
CCN(C(=O)C1CC1)c1cccc(-c2ccnc3ccnn23)c1 | 127 to 129
COc1ccc(C)cc1NC(=O)Nc1ccc2c(c1)CCN(C(=O)Nc1ccc(OCCO)cc1C(F)(F)F)C2 | 122 to 124
CC(COc1ccccc1C(=O)C(=O)c1ccccc1OCC(C)CN(C)C)CN(C)C (configuration not stated) | 69 to 70
O=C(c1ccc(-c2ccncc2)nc1)N1CCN(S(=O)(=O)c2ccc3cc(Br)ccc3c2)CC1 | 194
Cc1sc(-c2ccccc2)nc1COc1ccc(CO)cc1 | 94 to 95
CCN(CC)C(=O)n1ccc(Sc2ccc(Br)cc2Cl)n1 | 77 to 79

SMILES | melting point [°C]
CC1(C)OC(=C(C#N)C#N)C(C#N)=C1c1ccc(C2CCCCCN2)s1 (configuration not stated) | 264
OCC1(n2nc3ccccc3n2)OCC1c1ccccc1 (configuration not stated) | 119 to 123
CCCc1ccccc1OCCCOc1ccc2c(=O)cc(C(=O)OCC)oc2c1 | 73 to 75
O=C1c2ccccc2C(=O)N1CCCCCCN1CCC(c2nc(-c3ccncc3)c(-c3ccc(Cl)c(Cl)c3)[nH]2)CC1 | 129 to 134
CCCCCCCCCCCCCC(=O)OCC1(CO)CCC(=O)O1 (configuration not stated) | 65 to 66
CCCc1ccc(-n2nc(Cl)cc2-c2ccc(S(C)(=O)=O)cc2)cc1[N+](=O)[O-] | 42 to 46
CC(C)Cn1c(C#N)c(-c2ccccc2)c2cccnc2c1=O | 221 to 222
O=C(CSc1ccc(Cl)c(Cl)c1)C12CC3CC(CC(C3)C1)C2 | 105 to 110
CCN1c2ncc(COc3cccnc3)cc2C(=O)N(C)c2ccc(Cl)nc21 | 183 to 184
CCOC(=O)c1ccc(S(C)(=O)=O)nc1C(F)(F)F | 70 to 72
O=C(Nc1c[nH]nc1C(=O)NCc1ccc(-c2ccccc2)cc1)c1ccccn1 | 227 to 228
O=C(Nc1c(C(O)(C(F)(F)F)C(F)(F)F)ccc2ccccc12)c1ccno1 | 162 to 164
CCOC(=O)C1CC(=O)c2nc(C)c(C)n2C1 (configuration not stated) | 138 to 140
CC(C)Oc1c(-c2ccc(S(C)(=O)=O)cc2)cnn(-c2cc(F)ccc2F)c1=O | 161 to 164
O=C(O)[C@H](Cc1c[nH]c2ccccc12)NS(=O)(=O)c1ccc(F)cc1 | 57 to 60
CCC[C@H](N[C@@H](C)C(=O)N1N=C(C(C)(C)C)S[C@H]1C(=O)O)C(=O)OCC | 183 to 185
O=C(NCCCCCCOCc1ccc(OCc2ccccc2)cc1)c1cc(-c2cccc(C(F)(F)F)c2)c(O)c(-c2cccc(C(F)(F)F)c2)c1 | 127 to 130
CC(=O)Nc1ccc(C(=O)Nc2c(C)cccc2C)cc1 | 293 to 295
Cn1cnc2c3ncc(Cl)cc3ccc21 | 188 to 189
NS(=O)(=O)c1cccc(-c2cn(-c3nc(-c4ccc(Cl)s4)cc(C(F)(F)F)n3)cn2)c1 | 189
O=C(C1CC1)N1CC2CC2(c2ccccc2)C1 (configuration not stated) | 164 to 165
COc1cc(C=Cc2ccccc2)cc(OC)c1 | 56.4
O=C1C(=O)c2ccc(F)cc2C2=C1SCC1(CCN(CC(O)Cc3ccccc3)CC1)O2 (configuration not stated) | 76 to 77
COc1ccc(OC)c2c1C(=O)C=C(SCCCCO)C2=O | 122 to 123
CN(Cc1cc2cc([N+](=O)[O-])ccc2o1)C1Cc2ccc([N+](=O)[O-])cc2C1 (configuration not stated) | 109 to 111
CCCSc1cn(C)cc(-c2ccc(Cl)c(C(F)(F)F)c2)c1=O | 128 to 130

SMILES | melting point [°C]
CNCCNCc1ccc(-c2cc3ncnc(Nc4ccc5[nH]ccc5c4)c3s2)cc1 | 93 to 105
Cc1cc(N(C)Cc2ccc(-c3ccc(OC(F)(F)F)cc3)nc2)ccc1OCC(=O)O | 137 to 138
CC(C(=O)O)c1ccc(-n2cc(Br)cn2)cc1 (configuration not stated) | 154 to 155
O=C(O)Cc1cccc2c(=O)cc(-c3cc(F)cc(F)c3)oc12 | 221 to 223
NC(=O)c1cc(-c2nccs2)[nH]c1C(CC1CCOCC1)c1ccc(S(=O)(=O)C2CC2)cc1 (configuration not stated) | 241 to 243
COc1ccc(-c2nc(Sc3ncccn3)[nH]c2-c2ccc(OC)cc2)cc1 | 86
Nc1nc(N)c2ncn(CCC(CO)CO)c2n1 | 187 to 190
c1csc(-c2nc(COc3ccc(CCCn4ccnc4)cn3)co2)c1 | 86 to 87
CN(C(=S)Oc1ccc(Cl)c(C(C)(C)C)c1)c1ccccc1 | 65 to 67
CCOC(=O)CC(NCCCNC(C)(C)C)C(=O)O (configuration not stated) | 174 to 175
CC(=O)Nc1ccc(C(F)(F)F)cc1-c1ccc(OC(C)C(O)CCc2cccnc2)cc1 (configuration not stated) | 44 to 47
O=c1nc(-c2ccco2)sc2ccccc12 | 170 to 172
Cn1nc2c(c1S(C)(=O)=O)CCCN2c1ccc(Cl)cc1Cl | 182 to 183
CN(C)c1ccc(CC(=O)N2CCC(c3[nH]nc4c3C(=O)c3c(NC(=O)NN5CCOCC5)cccc3-4)CC2)cc1 | 107 to 109
O=C(Nc1ccccc1)OCC1c2ccccc2-c2ccccc21 | 243 to 244
CC(=O)c1cc(F)cc(C#N)c1F | 80 to 83
C[C@H](O)CCC[C@H](O)CCCCCc1cccc(O)c1C(=O)O | 83 to 84
Cc1oc(-c2ccc(F)cc2)nc1CO | 153 to 155
CCOc1ccc(Br)c(Cl)c1F | 48 to 48.5
CNc1cccc(C2C(C(=O)OC)=C(C)NC(C)=C2C(=O)OC)c1 | 182 to 184
Cc1ccc(-c2cccnc2)nc1 | 40 to 41
Clc1nc(-c2cccnc2)sc1-c1cccnc1 | 145 to 147
COc1cccc([N+](=O)[O-])c1NC(=O)OCc1ccccc1 | 78 to 80
CC(C)(COc1ccc(C(N)=O)cn1)NCc1ccccc1 | 125 to 126
